Experimental data from US10253052B2, “HBED-bisphosphonates, radiometal conjugates and their use as theranostic agents” (Five Eleven Pharma Inc., priority 2015, dated 2019).
Values joined by “and” are separate entries in the source; they are usually repeats but may differ in a detail not shown here. Equal entries are not always repeated. “Also recorded” adds a separate entry of the source.

What was measured:
[1] = tested on: PSMA positive LNCaP cells; experiment: Cell uptake in PSMA positive LNCaP cells; assay type: cell-based; conditions: 1 hr incubation at 37° C.
[2] = In vivo biodistribution in mice; set-up: species or system normal CD-1 male mice; conditions: for bone to blood ratio / bone to muscle ratio / Biodistribution: Blood / Biodistribution: Bone / Biodistribution: Brain / Biodistribution: Heart / Biodistribution: Kidney / Biodistribution: Liver / Biodistribution: Lung / Biodistribution: Muscle / Biodistribution: Pancreas / Biodistribution: Skin / Biodistribution: Spleen: iv; for Biodistribution result in words (organ uptake, retention, excretion): normal mice after iv injection
Summary of the method: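 Uptake values are % injected dose per gram of wet tissue, from gamma counting of weighed organs with tibia plus femur taken as bone. Tracers (20-30 μCi per animal) were given i.v. to healthy male CD-1 mice (25-30 g), with sacrifice at 2, 30, 60 and 120 min post injection.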

[3] = tested on: PSMA expressing LNCaP tumor; experiment: Micro-PET imaging in PSMA expressing tumor bearing mouse; assay type: in vivo, nude mice; conditions: 500 μCi, 60 min post injection, 15 min scan
Method: (§1) [^68Ga]1a, [^68Ga]BPAMD and [^18F]NaF were tested in normal CD-1 male mice. [^68Ga]1g was tested in PSMA expressing LNCaP tumor bearing nude mice. Mice received 300-500 uCi radiotracer through a tail vein injection. PET imaging was performed under isoflurane anaesthesia (2% isoflurane, 1.5 L/min oxygen). The microPET imaging was performed with a small animal PET (Mosaic by Phillips, USA). During PET measurements, the animals were placed in the prone position. At 60 min post injection of the radiotracer, data acquisition was performed for 15 min.

[4] = In vitro binding to hydroxyapatite; conditions: 20 mg hydroxyapatite in saline, 10 min at room temperature
Summary of the method: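 Binding is given as the percentage of ^68Ga activity retained by hydroxyapatite, measured by gamma counting of the solid versus the pooled supernatant and saline washes. The tracer (1 μCi) was exposed for 10 min at room temperature to hydroxyapatite pre-soaked 24 h in isotonic saline.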

[5] = tested on: PSMA negative PC3 cells; experiment: Cell uptake in PSMA negative PC3 cells; assay type: cell-based; conditions: 1 hr incubation at 37° C.
[6] = Micro-PET imaging in normal mice; assay type: in vivo, normal CD-1 male mice; conditions: 15 min scan at 60 min post-injection
Method: as §1

## O=C([O-])CN(CCN(CC(=O)[O-])Cc1cc(CCC(=O)NC(P(=O)(O)O)P(=O)(O)O)ccc1[O-])Cc1cc(CCC(=O)NCCCCCC(=O)NCCCC[C@H](NC(=O)N[C@@H](CCC(=O)O)C(=O)O)C(=O)O)ccc1[O-].[68Ga+3] [[^68Ga]1g]
[1]
  Cell uptake in PSMA positive LNCaP cells (in words): high cell uptake and retention only in LNCaP cells; also recorded: excellent uptake
[2]; 2 min
  bone to blood ratio: 0.97
  bone to muscle ratio: 3.71
[2]; 2 min post injection
  Biodistribution: Blood: 8.34 ± 0.51 % dose/g
  Biodistribution: Bone: 8.13 ± 1.87 % dose/g
  Biodistribution: Brain: 0.21 ± 0.03 % dose/g
  Biodistribution: Heart: 3.13 ± 0.15 % dose/g
  Biodistribution: Kidney: 35.3 ± 3.75 % dose/g
  Biodistribution: Liver: 1.73 ± 0.09 % dose/g
  Biodistribution: Lung: 4.19 ± 0.50 % dose/g
  Biodistribution: Muscle: 2.19 ± 0.11 % dose/g
  Biodistribution: Pancreas: 1.69 ± 0.13 % dose/g
  Biodistribution: Skin: 2.97 ± 0.14 % dose/g
  Biodistribution: Spleen: 2.50 ± 0.41 % dose/g
[2]; 30 min
  bone to blood ratio: 29
  bone to muscle ratio: 46
[2]; 30 min (0.5 hr) post injection
  Biodistribution: Blood: 0.56 ± 0.10 % dose/g
  Biodistribution: Bone: 16.3 ± 0.68 % dose/g
  Biodistribution: Brain: 0.03 ± 0.00 % dose/g
  Biodistribution: Heart: 0.45 ± 0.07 % dose/g
  Biodistribution: Kidney: 77.1 ± 8.24 % dose/g
  Biodistribution: Liver: 0.27 ± 0.02 % dose/g
  Biodistribution: Lung: 1.02 ± 0.13 % dose/g
  Biodistribution: Muscle: 0.35 ± 0.02 % dose/g
  Biodistribution: Pancreas: 0.69 ± 0.02 % dose/g
  Biodistribution: Skin: 0.65 ± 0.05 % dose/g
  Biodistribution: Spleen: 2.09 ± 0.75 % dose/g
[2]; 60 min
  bone to blood ratio: 53
  bone to muscle ratio: 74
[2]; 60 min (1 hr) post injection
  Biodistribution: Blood: 0.28 ± 0.05 % dose/g
  Biodistribution: Bone: 15.1 ± 1.04 % dose/g
  Biodistribution: Brain: 0.03 ± 0.01 % dose/g
  Biodistribution: Heart: 0.32 ± 0.03 % dose/g
  Biodistribution: Kidney: 78.4 ± 7.11 % dose/g
  Biodistribution: Liver: 0.18 ± 0.01 % dose/g
  Biodistribution: Lung: 0.58 ± 0.02 % dose/g
  Biodistribution: Muscle: 0.21 ± 0.02 % dose/g
  Biodistribution: Pancreas: 0.37 ± 0.07 % dose/g
  Biodistribution: Skin: 0.42 ± 0.06 % dose/g
  Biodistribution: Spleen: 0.91 ± 0.13 % dose/g
[2]; 120 min
  bone to blood ratio: 98
  bone to muscle ratio: 98
[2]; 120 min post injection
  Biodistribution: Blood: 0.17 ± 0.03 % dose/g
  Biodistribution: Bone: 17.0 ± 0.05 % dose/g
  Biodistribution: Brain: 0.02 ± 0.00 % dose/g
  Biodistribution: Heart: 0.20 ± 0.03 % dose/g
  Biodistribution: Kidney: 70.3 ± 8.29 % dose/g
  Biodistribution: Liver: 0.18 ± 0.02 % dose/g
  Biodistribution: Lung: 0.47 ± 0.04 % dose/g
  Biodistribution: Muscle: 0.17 ± 0.04 % dose/g
  Biodistribution: Pancreas: 0.34 ± 0.03 % dose/g
  Biodistribution: Skin: 0.29 ± 0.06 % dose/g
  Biodistribution: Spleen: 0.87 ± 0.20 % dose/g
[3]
  Micro-PET targeting (in words): targets both bone and PSMA binding sites
[4]
  Hydroxyapatite Binding (%): 88.0 ± 10.5%
[5]
  Cell uptake in PSMA negative PC3 cells (in words): no uptake

## O=C(O)CN1CCN(CC(=O)O)CCN(CC(=O)NC(P(=O)(O)O)P(=O)(O)O)CCN(CC(=O)O)CC1.[68Ga] [[^68Ga]BPAMD, reference compound]
[2]; 2 min
  bone to blood ratio: 0.8
  bone to muscle ratio: 4.3
[2]; 2 min post injection
  Biodistribution: Blood: 9.45 ± 0.55 % dose/g
  Biodistribution: Bone: 7.07 ± 0.94 % dose/g
  Biodistribution: Brain: 0.26 ± 0.01 % dose/g
  Biodistribution: Heart: 2.74 ± 0.23 % dose/g
  Biodistribution: Kidney: 22.1 ± 8.80 % dose/g
  Biodistribution: Liver: 1.92 ± 0.31 % dose/g
  Biodistribution: Lung: 4.58 ± 0.36 % dose/g
  Biodistribution: Muscle: 1.63 ± 0.35 % dose/g
  Biodistribution: Pancreas: 1.73 ± 0.11 % dose/g
  Biodistribution: Skin: 2.57 ± 0.53 % dose/g
  Biodistribution: Spleen: 1.90 ± 0.14 % dose/g
[2]; 30 min
  bone to blood ratio: 10
  bone to muscle ratio: 19
[2]; 30 min (0.5 hr) post injection
  Biodistribution: Blood: 1.02 ± 0.19 % dose/g
  Biodistribution: Bone: 10.5 ± 0.6 % dose/g
  Biodistribution: Brain: 0.06 ± 0.02 % dose/g
  Biodistribution: Heart: 0.29 ± 0.02 % dose/g
  Biodistribution: Kidney: 1.46 ± 0.19 % dose/g
  Biodistribution: Liver: 0.22 ± 0.02 % dose/g
  Biodistribution: Lung: 0.50 ± 0.16 % dose/g
  Biodistribution: Muscle: 0.55 ± 0.11 % dose/g
  Biodistribution: Pancreas: 0.27 ± 0.14 % dose/g
  Biodistribution: Skin: 0.39 ± 0.15 % dose/g
  Biodistribution: Spleen: 0.22 ± 0.14 % dose/g
[2]; 60 min
  bone to blood ratio: 10
  bone to muscle ratio: 30
[2]; 60 min (1 hr) post injection
  Biodistribution: Blood: 0.93 ± 0.06 % dose/g
  Biodistribution: Bone: 9.21 ± 0.90 % dose/g
  Biodistribution: Brain: 0.04 ± 0.00 % dose/g
  Biodistribution: Heart: 0.37 ± 0.06 % dose/g
  Biodistribution: Kidney: 2.88 ± 1.51 % dose/g
  Biodistribution: Liver: 0.25 ± 0.03 % dose/g
  Biodistribution: Lung: 0.51 ± 0.09 % dose/g
  Biodistribution: Muscle: 0.31 ± 0.04 % dose/g
  Biodistribution: Pancreas: 0.30 ± 0.02 % dose/g
  Biodistribution: Skin: 0.60 ± 0.08 % dose/g
  Biodistribution: Spleen: 0.21 ± 0.02 % dose/g
[2]; 120 min
  bone to blood ratio: 11
  bone to muscle ratio: 33
[2]; 120 min post injection
  Biodistribution: Blood: 0.90 ± 0.41 % dose/g
  Biodistribution: Bone: 9.62 ± 0.71 % dose/g
  Biodistribution: Brain: 0.03 ± 0.01 % dose/g
  Biodistribution: Heart: 0.26 ± 0.07 % dose/g
  Biodistribution: Kidney: 1.09 ± 0.26 % dose/g
  Biodistribution: Liver: 0.31 ± 0.11 % dose/g
  Biodistribution: Lung: 0.45 ± 0.10 % dose/g
  Biodistribution: Muscle: 0.29 ± 0.06 % dose/g
  Biodistribution: Pancreas: 0.33 ± 0.07 % dose/g
  Biodistribution: Skin: 0.55 ± 0.04 % dose/g
  Biodistribution: Spleen: 0.25 ± 0.08 % dose/g
[2]
  Biodistribution result in words (organ uptake, retention, excretion): less bone uptake and retention
[6]
  Micro-PET localization (in words): localized in the spines of mice
[4]
  Hydroxyapatite Binding (%): 90.6 ± 6.0%

## O=C([O-])CN(CCN(CC(=O)[O-])Cc1cc(CCC(=O)NC(P(=O)(O)O)P(=O)(O)O)ccc1[O-])Cc1cc(CCC(=O)O)ccc1[O-].[68Ga+3] [[^68Ga]1a]
[2]; 2 min
  bone to blood ratio: 0.9
  bone to muscle ratio: 4.8
[2]; 2 min post injection
  Biodistribution: Blood: 9.39 ± 0.93 % dose/g
  Biodistribution: Bone: 8.60 ± 0.85 % dose/g
  Biodistribution: Brain: 0.31 ± 0.10 % dose/g
  Biodistribution: Heart: 3.28 ± 0.13 % dose/g
  Biodistribution: Kidney: 31.2 ± 1.92 % dose/g
  Biodistribution: Liver: 1.95 ± 0.15 % dose/g
  Biodistribution: Lung: 4.28 ± 0.21 % dose/g
  Biodistribution: Muscle: 1.80 ± 0.16 % dose/g
  Biodistribution: Pancreas: 1.58 ± 0.10 % dose/g
  Biodistribution: Skin: 2.18 ± 0.28 % dose/g
  Biodistribution: Spleen: 1.89 ± 0.20 % dose/g
[2]; 30 min
  bone to blood ratio: 36
  bone to muscle ratio: 96
[2]; 30 min (0.5 hr) post injection
  Biodistribution: Blood: 0.45 ± 0.10 % dose/g
  Biodistribution: Bone: 16.0 ± 1.22 % dose/g
  Biodistribution: Brain: 0.02 ± 0.01 % dose/g
  Biodistribution: Heart: 0.22 ± 0.02 % dose/g
  Biodistribution: Kidney: 1.54 ± 0.29 % dose/g
  Biodistribution: Liver: 0.32 ± 0.20 % dose/g
  Biodistribution: Lung: 0.38 ± 0.03 % dose/g
  Biodistribution: Muscle: 0.17 ± 0.03 % dose/g
  Biodistribution: Pancreas: 0.30 ± 0.27 % dose/g
  Biodistribution: Skin: 0.42 ± 0.12 % dose/g
  Biodistribution: Spleen: 0.17 ± 0.01 % dose/g
[2]; 60 min
  bone to blood ratio: 118
[2]; 60 min (1 hr) post injection
  Biodistribution: Blood: 0.20 ± 0.06 % dose/g
  Biodistribution: Bone: 23.5±1.4 % dose/g and 23.5 ± 1.42 % dose/g
  Biodistribution: Brain: 0.02 ± 0.01 % dose/g
  Biodistribution: Heart: 0.12 ± 0.02 % dose/g
  Biodistribution: Kidney: 1.63 ± 0.71 % dose/g
  Biodistribution: Liver: 0.17 ± 0.01 % dose/g
  Biodistribution: Lung: 0.21 ± 0.03 % dose/g
  Biodistribution: Muscle: 0.08 ± 0.02 % dose/g
  Biodistribution: Pancreas: 0.09 ± 0.02 % dose/g
  Biodistribution: Skin: 0.19 ± 0.05 % dose/g
  Biodistribution: Spleen: 0.10 ± 0.02 % dose/g
[2]; 120 min
  bone to blood ratio: 320
  bone to muscle ratio: 447
[2]; 120 min post injection
  Biodistribution: Blood: 0.07 ± 0.03 % dose/g
  Biodistribution: Bone: 23.9 ± 1.99 % dose/g
  Biodistribution: Brain: 0.01 ± 0.00 % dose/g
  Biodistribution: Heart: 0.07 ± 0.01 % dose/g
  Biodistribution: Kidney: 0.92 ± 0.10 % dose/g
  Biodistribution: Liver: 0.14 ± 0.02 % dose/g
  Biodistribution: Lung: 0.12 ± 0.03 % dose/g
  Biodistribution: Muscle: 0.05 ± 0.01 % dose/g
  Biodistribution: Pancreas: 0.05 ± 0.01 % dose/g
  Biodistribution: Skin: 0.13 ± 0.03 % dose/g
  Biodistribution: Spleen: 0.09 ± 0.03 % dose/g
[2]
  Biodistribution result in words (organ uptake, retention, excretion): excellent bone uptake and fast kidney excretion; also recorded: excellent bone uptake and retention
[6]
  Micro-PET localization (in words): localized in the spines of mice
[4]
  Hydroxyapatite Binding (%): 92.3 ± 1.1%

## O=C(O)CCC(CP(=O)(O)O)C(=O)O (stereo not shown) [2-PMPA, 2-(phosphonomethyl)pentane-1,5-dioic acid, reference compound]
[1]
  Blocking of [68Ga]1g cell uptake to PSMA positive LNCaP cells: blocked the cell uptake
